Test results taken from the supplement of paper PMC8882468.
± gives the standard deviation of the averaged measurements.

Tests used:
Assay in all cases: CTG-3D luminescence at 96 h relative to day-0 seeding control (ratio to day 0); higher = more growth / less cytotoxicity; PDxO 3D drug screen, 96 h, CTG-3D normalised to day-0 seeding control.
MDA-MB-231 = tested on: MDA-MB-231
HCI-002 = tested on: HCI-002 (organoid from a triple-negative breast cancer xenograft)
HCI-011.E2 = tested on: HCI-011.E2 (organoid from an ER-positive breast cancer xenograft)
HCI-023 = tested on: HCI-023 (organoid from a triple-negative breast cancer xenograft)
HCI-015 = tested on: HCI-015 (organoid from a triple-negative breast cancer xenograft)

C/C=C1\NC(=O)[C@H]2CSSCC/C=C/[C@H](CC(=O)N[C@H](C(C)C)C(=O)N2)OC(=O)[C@H](C(C)C)NC1=O [romidepsin]
CTG-3D luminescence at 96 h
Conditions | 12.5 pM | 0.00025 µM | 0.005 µM | 0.1 µM | 1 µM | 10 µM | 100 µM | 625 fM
HCI-011.E2 | 1.55 ± 0.36 | 1.34 ± 0.47 | 0.559 ± 0.16 | 0.47 ± 0.17 | 0.382 ± 0.17 | 0.0141 ± 0.0054 | -0.00792 ± 0.005 | 0.902 ± 0.2
MDA-MB-231 | 3.87 ± 1.3 | 3.12 ± 2 | 0.22 ± 0.13 | 0.0791 ± 0.041 | 0.0421 ± 0.023 | -0.000441 ± 0.0079 | -0.0309 ± 0.0082 | 4.02 ± 1.4

CTG-3D luminescence at 96 h
Conditions | 12.5 pM | 0.00025 µM | 0.005 µM | 0.1 µM | 1 µM | 10 µM | 100 µM | 625 fM
HCI-002, days in culture: 62 | 3.13 | 2.76 | 0.0634 | -0.0198 | -0.0112 | -0.0609 | -0.0931 | 3.1
HCI-002, days in culture: 82 | 3.16 | 3.38 | 0.0989 | 0.0435 | 0.0464 | -0.0117 | -0.0289 | 2.85
HCI-002, days in culture: 91 | 2.94 | 2.73 | 0.0516 | 0.028 | 0.0172 | 0.000373 | -0.0143 | 2.7
HCI-002, days in culture: 191 | 3.33 | 3.23 | -0.0284 | -0.0636 | -0.0937 | -0.0909 | -0.148 | 3.22
HCI-002, days in culture: 209 | 2.88 | 2.68 | 0.0167 | -0.00615 | -0.0397 | -0.0225 | -0.0845 | 2.84
HCI-002, days in culture: 227 | 5.16 | 4.82 | 0.108 | 0.0548 | 0.0335 | 0.0109 | -0.0188 | 5.69
HCI-011.E2, days in culture: 74 | 2.09 | 2.7 | 1.63 | 0.493 | 0.486 | 0.0744 | -0.0129 | 1.63
HCI-015, days in culture: 172 | 1.96 | 1.32 | 1.05 | 0.221 | 0.425 | -0.0523 | -0.0841 | 2.7
HCI-015, days in culture: 191 | 2.51 | 1.79 | 0.707 | 0.312 | 0.256 | 0.0321 | 0.00192 | 2.21
HCI-015, days in culture: 218 | 2.09 | 1.5 | 0.78 | -0.0662 | -0.0737 | -0.275 | -0.342 | 2.07
HCI-023, days in culture: 111 | 1.65 | 1.37 | 0.46 | 0.0304 | 0.0241 | -0.00341 | -0.0106 | 1.9
HCI-023, days in culture: 128 | 1.66 ± 0.3 | 1.55 ± 0.42 | 0.343 ± 0.02 | 0.104 ± 0.041 | 0.0518 ± 0.032 | 0.00597 ± 7e-05 | -0.00382 ± 0.00046 | 1.556 ± 0.0057

Cc1cc(Nc2ncc(Cl)c(Nc3ccccc3S(=O)(=O)C(C)C)n2)c(OC(C)C)cc1C1CCNCC1 [ceritinib]
CTG-3D luminescence at 96 h
Conditions | 12.5 pM | 0.00025 µM | 0.005 µM | 0.1 µM | 1 µM | 10 µM | 100 µM | 625 fM
HCI-011.E2 | 1.68 ± 0.72 | 1.409 ± 0.0053 | 1.37 ± 0.39 | 1.85 ± 0.22 | 1.4 ± 0.34 | 0.353 ± 0.48 | -0.00338 ± 0.0019 | 1.92 ± 0.77
MDA-MB-231 | 4.39 ± 1.4 | 4.39 ± 1.3 | 4.6 ± 1.5 | 4.48 ± 1.2 | 4.36 ± 1.4 | 0.0178 ± 0.0055 | -0.011 ± 0.0032 | 4.51 ± 1.3

CTG-3D luminescence at 96 h
Conditions | 12.5 pM | 0.00025 µM | 0.005 µM | 0.1 µM | 1 µM | 10 µM | 100 µM | 625 fM
HCI-002, days in culture: 62 | 2.84 | 2.62 | 3.08 | 2.52 | 2.11 | 0.00947 | -0.00984 | 3.15
HCI-002, days in culture: 82 | 3.23 | 2.64 | 2.18 | 2.46 | 1.76 | 0.00838 | -0.0057 | 2.72
HCI-002, days in culture: 91 | 4.25 | 3.86 | 3.52 | 4.11 | 3.29 | 0.00341 | -0.0215 | 4.18
HCI-002, days in culture: 191 | 2.47 | 2.8 | 2.59 | 2.41 | 2.23 | 0.00759 | -0.00732 | 2.72
HCI-002, days in culture: 209 | 2.4 | 2.59 | 2.23 | 2.14 | 2.03 | 0.00677 | -0.00747 | 2.35
HCI-002, days in culture: 227 | 6.1 | 6.52 | 5.45 | 5.99 | 4.45 | -0.223 | -0.242 | 7.25
HCI-011.E2, days in culture: 74 | 1.46 | 1.59 | 1.77 | 2.11 | 1.4 | 0.0662 | -0.00371 | 1.72
HCI-015, days in culture: 172 | 1.51 | 1.75 | 2.29 | 1.44 | 1.69 | 0.00586 | -0.0049 | 2.67
HCI-015, days in culture: 191 | 2.15 | 1.47 | 1.3 | 0.962 | 1.19 | 0.00448 | -0.00428 | 1.68
HCI-015, days in culture: 218 | 1.77 | 1.1 | 1.51 | 1.54 | 1.33 | 0.00686 | -0.00473 | 1.61
HCI-023, days in culture: 111 | 1.47 | 1.19 | 1.18 | 1.12 | 0.844 | 0.00455 | -0.00268 | 1.19
HCI-023, days in culture: 128 | 1.39 ± 0.21 | 1.2 ± 0.45 | 1.17 ± 0.21 | 1.65 ± 0.042 | 0.92736 ± 0.00061 | 0.00417 ± 0.0011 | -0.00332 ± 0.00062 | 1.65 ± 0.49

CN(Cc1cnc2nc(N)nc(N)c2n1)c1ccc(C(=O)N[C@@H](CCC(=O)O)C(=O)O)cc1 [methotrexate]
CTG-3D luminescence at 96 h
Conditions | 12.5 pM | 0.00025 µM | 0.005 µM | 0.1 µM | 1 µM | 10 µM | 100 µM | 625 fM
HCI-011.E2 | 1.46 ± 0.36 | 1.77 ± 0.6 | 1.44 ± 0.56 | 1.83 ± 0.1 | 1.62 ± 0.63 | 2.08 ± 0.72 | 2.21 ± 0.71 | 1.59 ± 0.47
MDA-MB-231 | 4.34 ± 1.4 | 4.29 ± 1.5 | 4.44 ± 1.4 | 4.37 ± 1.3 | 2.63 ± 0.79 | 2.29 ± 0.75 | 2.66 ± 1.1 | 4.36 ± 1.3

CTG-3D luminescence at 96 h
Conditions | 12.5 pM | 0.00025 µM | 0.005 µM | 0.1 µM | 1 µM | 10 µM | 100 µM | 625 fM
HCI-002, days in culture: 62 | 2.96 | 2.69 | 2.51 | 2.07 | 1.87 | 1.98 | 1.41 | 3
HCI-002, days in culture: 82 | 2.95 | 3.08 | 2.15 | 2.74 | 2.21 | 2.01 | 1.45 | 2.71
HCI-002, days in culture: 91 | 3.87 | 3.77 | 3.65 | 2.64 | 2.19 | 2.11 | 1.68 | 4.28
HCI-002, days in culture: 191 | 2.61 | 2.61 | 2.29 | 1.61 | 1.57 | 1.54 | 1.33 | 2.53
HCI-002, days in culture: 209 | 2.46 | 2.21 | 2.31 | 1.84 | 1.59 | 1.28 | 1.33 | 2.57
HCI-002, days in culture: 227 | 6.13 | 6.3 | 5.89 | 6.23 | 5.35 | 5.18 | 4.27 | 6.94
HCI-011.E2, days in culture: 74 | 1.97 | 2.4 | 1.99 | 2.27 | 2.49 | 3.6 | 2.24 | 2.17
HCI-015, days in culture: 172 | 2.51 | 2.28 | 2.36 | 1.31 | 1.55 | 1.13 | 1.06 | 2.55
HCI-015, days in culture: 191 | 1.94 | 1.41 | 1.62 | 1.1 | 1.23 | 0.977 | 0.939 | 1.36
HCI-015, days in culture: 218 | 1.75 | 1.57 | 1.63 | 1.69 | 1.48 | 1.63 | 1.21 | 1.79
HCI-023, days in culture: 111 | 1.59 | 1.42 | 1.18 | 1.07 | 0.83 | 0.957 | 0.655 | 1.51
HCI-023, days in culture: 128 | 1.68 ± 0.15 | 1.51 ± 0.073 | 1.5 ± 0.16 | 1.84 ± 0.094 | 1.37 ± 0.12 | 1.77 ± 0.14 | 1.22 ± 0.16 | 1.62 ± 0.16
